In series [1] the test system is B16-F10 cells. The series is described as follows: Scanning electron microscopy of cell membrane. Format: cell-based, mouse. As to conditions: 50 μM, 24 h. On the procedure: The morphologic changes of the cell membrane of B16-F10 cells treated with peptides were observed by SEM [14]. The cells were seeded on coverslips and placed into a six-well plate, then treated with LVTX-9 (50 μM) and LVTX-9-C18 (5 μM) for 24 h. After incubation, the B16-F10 cells were washed with sterile PBS gently three times and fixed with 2 mL of 2.5% glutaraldehyde solution in each well for 4 h at room temperature. Then, the fixed cells were dehydrated with a series of ethanol concentrations. We dried the samples with a Critical Point Dryer and coated them with gold plating before observation. A scanning electron microscope (Hitachi Su8010, Tokyo, Japan) was used to examine the prepared samples.

Series [2] in a line: Dynamic light scattering (hydrodynamic size, PDI, zeta potential). It counts as physicochemical. As to conditions: 100 µM in ultrapure water, 25 °C, repeated three times. On the procedure: (§1) Dynamic light scattering (DLS) of Zetasizer Nano ZSP (Malvern Instruments, Malvern, UK) apparatus was used to determine the hydrodynamic size and zeta potential of LVTX-9 and LVTX-9-C18. The peptides concentrations were diluted to 100 µM with ultrapure water with a final volume of 1 mL. The procedure ran at 25 °C, with each experiment repeated three times. The secondary structures of LVTX-9 and LVTX-9-C18 were determined to be in line with the previous protocol. The peptide concentrations were then diluted to 100 µM with ultrapure water and 100 mM of SDS was added in a final volume of 250 μL. The procedure was carried out at 25 °C. CD spectra were recorded between 180 nm and 280 nm on a Jasco J-815 CD spectrometer.

The test system of series [3] is B16-F10 cells. The series is described as follows: Colony formation assay. As to conditions: 10 μM, 7 days, crystal violet, mean ± SD, n = 3, control group 51 ± 12.0. Format: cell-based, mouse. On the procedure: To detect the proliferation of B16-F10 cells treated with LVTX-9 and LVTX-9-C18 at low concentrations, digested cells were counted using a Cellometer K2 and seeded into a 12-well plate with approximately 100 cells per well. After 36 h, cells were treated with LVTX-9 (10 μM) and LVTX-9-C18 (1 μM), then incubated for 7 days at 37 °C in a humidified 5% CO2 atmosphere. Visible colonies were stained with 0.5% crystal violet and photographically recorded. The colony formation rates were calculated, and curves were manufactured by GraphPad prism 5.0.

The next series has as its system B16-F10 tumor spheroids. The series is described as follows: Toxicity in 3D tumor spheroids. Format: cell-based, mouse. The following applies: 50 or 25 μM, RPMI-1640 with 10% serum, 3 days. On the procedure: To further study the toxicity of LVTX-9 and LVTX-9-C18 in vitro, B16-F10 tumor spheroids, as 3D tumor models, were cultured according to protocols in the literature. Briefly, B16-F10 cells were seeded into an ultra-low attachment, 96-well, round-bottom plate (Corning) and cultured at 37 °C for 3–4 days. Then, the B16-F10 tumor spheroids were treated with 50 or 25 μM of LVTX-9 and 20 or 10 μM of LVTX-9-C18 in the RPMI-1640 supplied with 10% serum for 3 days. Subsequently, images were taken on days 0 and 3, and the cell viability was measured using a CellTiter-Glo 3D Cell Viability Assay (G9683).

Series [4] has as its system B16-F10 cells. The series is described as follows: LDH leakage assay. The following applies: 25 μM, 24 h, absorbance 490 nm, n = 3. Format: cell-based, mouse. On the procedure: At first, the B16-F10 cells were cultured in 96-well plates for 24 h at approximately 2 × 10^3 cells/well. Subsequently, the cells were treated for 24 h with LVTX-9 or LVTX-9-C18 with a series of concentration gradients. LDH leakage detection was detected using an LDH Cytotoxicity Assay Kit according to the manufacturer’s instructions (Beyotime, Shanghai, China. C0017). The absorption was measured using an Absorbance Microplate Reader (BioTek Instruments) at 490 nm. The LDH release (%) of peptides was calculated by GraphPad prism 5.0.
(LDH leaks from cells whose membrane has failed.)

The test system of the next series is erythrocytes. The series is described as follows: Hemolytic activity. As to conditions: 1% RBC in PBS, 30 min at 37 °C, absorbance 450 nm, 0.1% Triton-X 100 positive control. It counts as cell-based. On the procedure: The hemolytic activity levels of LVTX-9 and LVTX-9-C18 were confirmed as follows. Red blood cells (RBC) were washed with sterile PBS and centrifuged for 5 min at 1000 rpm. The supernatant was removed, and cells were resuspended in PBS at a final concentration of 1% (5 × 10^6/mL). The diluted RBC suspension (50 µL) was mixed with PBS (negative control), 0.1% Triton-X 100 (positive control), and LVTX-9 or LVTX-9-C18 with various concentrations at a 1:1 ratio. The mixtures were incubated for 30 min at 37 °C, then centrifuged for 5 min at 12,000 rpm. The supernatant (90 µL) was added to a new 96-well plate to measure the absorbance at 450 nm using a microplate reader, and we produced hemolytic activity curves by GraphPad prism 5.0.

A short description of series [5]: Circular dichroism secondary structure. Format: physicochemical. The following applies: 100 µM, 25 °C, 180-280 nm. The procedure: as §1
On the technique in general: Circular dichroism is the unequal absorption of left and right circularly polarised light.

Series [6] relates to B16-F10 cells. In words: CCK-8 cell viability assay, B16-F10 cells. It counts as cell-based, mouse. As to conditions: 50 μM, 24 h of treatment, serum-free medium (Figure 3B). The procedure:
Mouse skin melanoma cells (B16-F10) were cultured in RPMI-1640 (Gibco), and mouse fibroblast cells (L-929), human lung carcinoma cells (A549), mouse breast cells (4T1), human hepatocarcinoma cells (HepG2), and human cervical carcinoma cells (Hela) were cultured in Dulbecco’s Modified Eagle Medium (DMEM, Gibco). All culture medium contained 10% fetal bovine serum (serum, Gibco), 100 U/mL of penicillin, and […] of streptomycin at 37 °C with 5% CO2.
Cell viability was quantified using a CCK-8 assay. At first, cells were seeded into a 96-well plate at approximately 2 × 10^3 cells/well. The following day, we created a 2-fold dilution series of each peptide using fresh medium (with or without 10% serum) for the treated cells, and cell viability was detected at 450 nm via a CCK-8 assay using an Absorbance Microplate Reader (BioTek Instruments, Winooski, VT, USA) following 24 h of drug incubation. The activity curves and IC50 values of the peptides were visualized using GraphPad prism 5.0.
A general note: Tetrazolium assays rely on reduction of a dye to a coloured formazan, in cell work by metabolically active cells.

Where no end group is shown, it is not given here.

Take “ASIGALIQKAIALIKAKAA-NH2 (C-terminus assumed) [LVTX-9]”: the “cell membrane morphology by SEM at 50 μM” value in the series on B16-F10 cells [1] is on record as “intact membranes with smooth surfaces”. The “PDI (hydrodynamic size, DLS)” value in series [2] stood at 0.65 ± 0.0481. In the series with B16-F10 cells [3], the “colony number at 10 μM” value was 58 ± 11.4. Further, the “growth of B16-F10 tumor spheroids at 50 or 25 μM” value in the series on B16-F10 tumor spheroids is given as “gradually grew”. Further, the “LDH release at 25 μM” value in the series on B16-F10 cells [4] is ~ 2%. The “hemolytic activity at 200 μM” value with erythrocytes is “almost no hemolytic activity”. Besides, in series [5] (100 mM SDS), the “secondary structure (CD) in 100 mM of SDS” value is “α-helical conformation”. Further, the “secondary structure (CD) in ultrapure water” value in series [5] (ultrapure water) is “random coil conformation”. Further, the “effect on cell viability at 50 μM” value in the series with B16-F10 cells [6] is on record as “no significant effect on cell viability”.
